Legend:
human GluR3B receptor = assay: binding assays with membrane preparations of engineered mammalian cells
Description: This feature, coupled with the medically significant connection between AMPA-type receptors and neurological disorders and disease indicate that the present receptors, as well as AMPA-binding fragments and variants thereof, will serve as valuable tools in the screening and discovery of ligands useful to modulate in vivo interactions between such receptors and their natural ligand, glutamate. Thus, a key aspect of the present invention resides in the construction of cells that are engineered genetically to produce human GluR3 receptor, to serve as a ready and homogeneous source of receptor for use in in vitro ligand binding and/or channel activation assays.

human GluR3A receptor [1] = assay: AMPA-binding assay, membranes of transfected COS-1 cells
Method: (§1) Transfected cells in the frozen state were resuspended in ice-cold distilled water using a hand homogenizer, sonicated for 5 seconds, and then centrifuged for 20 minutes at 50,000 g. The supernatant was discarded and the membrane pellet stored frozen at −70 C.
(§2) COS cell membrane pellets were suspended in ice cold 50 mM Tris-HCl (pH 7.55, 5 C) and centrifuged again at 50,000 g for 10 minutes in order to remove endogenous glutamate that would compete for binding. Pellets were resuspended in ice cold 50 mM Tris-HCl (pH 7.55) buffer and the resultant membrane preparation was used as tissue source for binding experiments described below. Proteins were determined using the Pierce Reagent with BSA as standard.
Binding assays were then performed, using an amount of COS-derived membrane equivalent to from 25-100 ug as judged by protein determination and selected radiolabelled ligand. In particular, for AMPA-binding assays, incubation mixtures consisted of 25-100 ug tissue protein and D,L-alpha-[5-methyl-3H]amino-3-hydroxy-5-methylisoxazole-4-propionic acid (3H-AMPA, 27.6 Ci/mmole, 10 nM final) with 0.1 M KSCN and 2.5 mM CaCl2 in the 1 ml final volume. Non-specific […] binding was determined in the presence of 1 mM L-glutamate. […] Pellets were washed twice in 6 ml of the cold incubation buffer, then 5 ml of Beckman Ready-Protein Plus scintillation cocktail was added, for counting.

human GluR3 receptor = assay: ligand binding assay (NMDA), membranes of transfected COS cells; details: COS cell membranes
human GluR3A receptor [2] = assay: kainate-binding assay, membranes of transfected COS-1 cells; details: COS cell membranes; [vinylidene-3H] kainic acid 5 nM
Method: as §1, §2
For kainate-binding assays, incubation mixtures consisted of 25-100 ug tissue protein and [vinylidene-3H] kainic acid (58 Ci/mmole, 5 nM final) in the cold incubation buffer, 1 ml final volume. Non-specific binding was determined in the presence of 1 mM L-glutamate. Samples were incubated as for the AMPA-binding assays, and bound and free ligand were separated by rapid filtration using a Brandel cell harvester and GF/B filters pre-soaked in ice-cold 0.3% polyethyleneimine. Filters were washed twice in 6 ml of the cold incubation buffer, then placed in scintillation vials with 5 ml of Beckman Ready-Protein Plus scintillation cocktail for counting.

Question: Which results are given for `Cc1onc(O)c1CC(N)C(=O)O` (stereo not drawn) [AMPA, alpha-amino-3-hydroxy-5-methyl-isoxazole-4propionate]?
Answer: selective binding relative to kainate and NMDA (human GluR3B receptor): bind selectively; specific binding (human GluR3A receptor [1]; 10 nM [3H]-AMPA, COS cell membranes, non-specific binding with 1 mM L-glutamate, FIG. 7): 25-30 fmole/mg protein; selective binding relative to kainate and NMDA (human GluR3A receptor [1]; human GluR3A, membrane preparations): bind selectively

Question: How did the “binding of NMDA” value (human GluR3 receptor) turn out when `CN[C@H](CC(=O)O)C(=O)O` [NMDA, N-methyl-D-aspartate] was run?
Answer: Its value is “little or no demonstrable binding”.

Question: Which binding of kainate (human GluR3A receptor [2]) does the source give for `C=C(C)[C@H]1CN[C@H](C(=O)O)[C@H]1CC(=O)O` [kainate, kainic acid] here?
Answer: The binding of kainate was “little or no demonstrable binding”.
